Here are results for nine molecules from paper PMC10332445 (Journal of medicinal chemistry, 2023).

Assay [1] concerns CSK, SYK, FRK, HCK, LYN, BAZ1B, TYK2, and Fes/Fps. The assay can be described thus: Label-free proteomics in TMD8 cells: other kinases. The format is cell-based, human. As to conditions: 111 nM, 6 h.
Assay [2] has as its target GSPT1 (Homo sapiens, UniProt P15170). The assay can be described thus: Label-free proteomics in TMD8 cells: GSPT1. In kind it is cell-based. To be noted: 111 nM, 6 h.
In assay [3] the test system is IKZF1 and IKZF3. Nature of the assay: Label-free proteomics in TMD8 cells: neo-substrates IKZF1/3. The format is cell-based, human. To be noted: 111 nM, 6 h.
Assay [4] has as its system TMD8 cells. The assay can be described thus: Apoptosis by Annexin-V/PI flow cytometry, TMD8 cells. As to conditions: 48 h; for Induction of apoptosis: TMD8 cells, 3000 nM to 0.15 nM. The format is cell-based.
The test system of assay [5] is BCR signaling pathway. Nature of the assay: BCR signaling pathway western blots in TMD8 and Mino cells. In kind it is cell-based. As to conditions: 48 h, stimulated with anti-human IgM.
In assay [6] the test system is Mino cells. The assay can be described thus: Apoptosis by Annexin-V/PI flow cytometry, Mino cells. The format is cell-based. As to conditions: 48 h, 3000 nM to 0.15 nM.
For assay [7], the target named is T1, BTK (Homo sapiens, UniProt Q06187). The assay can be described thus: BTK degradation in Ramos cells by western blot. To be noted: for BTK degradation by parent molecules: GDC-0853 and/or pomalidomide, 3000 nM to 0.15 nM, Figure S2. The format is cell-based.
T1 sequence (Q06187 whole entry): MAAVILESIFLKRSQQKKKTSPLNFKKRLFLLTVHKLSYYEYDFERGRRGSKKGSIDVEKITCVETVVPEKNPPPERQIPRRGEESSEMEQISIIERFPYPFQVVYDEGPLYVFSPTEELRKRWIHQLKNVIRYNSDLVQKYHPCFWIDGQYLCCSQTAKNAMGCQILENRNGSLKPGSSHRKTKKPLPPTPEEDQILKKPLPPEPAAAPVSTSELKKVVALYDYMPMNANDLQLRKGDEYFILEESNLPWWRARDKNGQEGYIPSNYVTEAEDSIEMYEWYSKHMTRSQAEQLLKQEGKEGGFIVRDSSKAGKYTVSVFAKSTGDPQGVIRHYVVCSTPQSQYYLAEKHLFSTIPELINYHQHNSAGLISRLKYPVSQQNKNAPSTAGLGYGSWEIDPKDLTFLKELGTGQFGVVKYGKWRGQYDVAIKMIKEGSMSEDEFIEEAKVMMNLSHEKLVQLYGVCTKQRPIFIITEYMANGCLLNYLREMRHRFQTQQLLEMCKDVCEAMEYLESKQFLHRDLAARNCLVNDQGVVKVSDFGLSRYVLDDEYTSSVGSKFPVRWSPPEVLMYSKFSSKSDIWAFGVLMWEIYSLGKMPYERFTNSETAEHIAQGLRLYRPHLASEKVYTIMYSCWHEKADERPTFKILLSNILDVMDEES
Assay [8] has as its system Mino cells. Nature of the assay: Cell viability, CellTiter-Glo 2.0, Mino cells. To be noted: read-out: Mino Cells IC50, 48 h (Figure 6) or 72 h (method). In kind it is cell-based.
In assay [9] the test system is TMD8 cells. The assay can be described thus: Cell viability, CellTiter-Glo 2.0, TMD8 cells. In kind it is cell-based. To be noted: read-out: TMD8 Cells IC50, 48 h.
The target in assay [10] is CRBN (Homo sapiens, UniProt Q96SW2). Nature of the assay: NanoBRET live-cell target engagement of CRBN in HEK293 cells. In kind it is cell-based. To be noted: number in parentheses, 37 °C.
Sequence of CRBN (Q96SW2 whole entry): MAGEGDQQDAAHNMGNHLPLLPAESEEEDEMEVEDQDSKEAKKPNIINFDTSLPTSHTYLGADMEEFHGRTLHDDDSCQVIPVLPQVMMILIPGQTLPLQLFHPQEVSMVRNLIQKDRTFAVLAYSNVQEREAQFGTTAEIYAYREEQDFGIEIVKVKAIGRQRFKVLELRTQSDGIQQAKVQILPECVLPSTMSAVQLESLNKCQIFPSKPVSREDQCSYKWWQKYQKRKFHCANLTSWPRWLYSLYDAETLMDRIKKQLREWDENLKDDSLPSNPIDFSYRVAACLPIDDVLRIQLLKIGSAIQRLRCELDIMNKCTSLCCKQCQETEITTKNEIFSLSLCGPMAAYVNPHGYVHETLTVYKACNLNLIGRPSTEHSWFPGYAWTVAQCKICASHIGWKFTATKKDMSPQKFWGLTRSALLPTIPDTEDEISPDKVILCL
Assay [11] deals with T1, BTK. Nature of the assay: NanoBRET live-cell target engagement of BTK in HEK293 cells. The format is cell-based. To be noted: for Hill slope, BTK target engagement: number in parentheses, 37 °C.
Assay [12] concerns the target ternary complex between BTK and CRBN (Homo sapiens, UniProt Q06187+Q96SW2). The assay can be described thus: NanoBRET ternary complex formation assay in HEK293 cells. The format is cell-based. To be noted: for Ternary complex formation (in words): live-cell NanoBRET.
The target of assay [13] is T1, BTK. The assay can be described thus: BTK degradation in seven B-cell malignant cell lines. In kind it is cell-based. To be noted: Figure S4.
Assay [14] concerns caspase-3, PARP, Bcl-2, Mcl-1. The assay can be described thus: Apoptosis pathway proteins by western blot in TMD8 and Mino cells. The format is cell-based. As to conditions: 48 h.

Sequence of GSPT1 (Q96SW2 whole entry partner): as the sequence (Q96SW2 whole entry) above
Sequence of GSPT1 (Q16531 whole entry partner): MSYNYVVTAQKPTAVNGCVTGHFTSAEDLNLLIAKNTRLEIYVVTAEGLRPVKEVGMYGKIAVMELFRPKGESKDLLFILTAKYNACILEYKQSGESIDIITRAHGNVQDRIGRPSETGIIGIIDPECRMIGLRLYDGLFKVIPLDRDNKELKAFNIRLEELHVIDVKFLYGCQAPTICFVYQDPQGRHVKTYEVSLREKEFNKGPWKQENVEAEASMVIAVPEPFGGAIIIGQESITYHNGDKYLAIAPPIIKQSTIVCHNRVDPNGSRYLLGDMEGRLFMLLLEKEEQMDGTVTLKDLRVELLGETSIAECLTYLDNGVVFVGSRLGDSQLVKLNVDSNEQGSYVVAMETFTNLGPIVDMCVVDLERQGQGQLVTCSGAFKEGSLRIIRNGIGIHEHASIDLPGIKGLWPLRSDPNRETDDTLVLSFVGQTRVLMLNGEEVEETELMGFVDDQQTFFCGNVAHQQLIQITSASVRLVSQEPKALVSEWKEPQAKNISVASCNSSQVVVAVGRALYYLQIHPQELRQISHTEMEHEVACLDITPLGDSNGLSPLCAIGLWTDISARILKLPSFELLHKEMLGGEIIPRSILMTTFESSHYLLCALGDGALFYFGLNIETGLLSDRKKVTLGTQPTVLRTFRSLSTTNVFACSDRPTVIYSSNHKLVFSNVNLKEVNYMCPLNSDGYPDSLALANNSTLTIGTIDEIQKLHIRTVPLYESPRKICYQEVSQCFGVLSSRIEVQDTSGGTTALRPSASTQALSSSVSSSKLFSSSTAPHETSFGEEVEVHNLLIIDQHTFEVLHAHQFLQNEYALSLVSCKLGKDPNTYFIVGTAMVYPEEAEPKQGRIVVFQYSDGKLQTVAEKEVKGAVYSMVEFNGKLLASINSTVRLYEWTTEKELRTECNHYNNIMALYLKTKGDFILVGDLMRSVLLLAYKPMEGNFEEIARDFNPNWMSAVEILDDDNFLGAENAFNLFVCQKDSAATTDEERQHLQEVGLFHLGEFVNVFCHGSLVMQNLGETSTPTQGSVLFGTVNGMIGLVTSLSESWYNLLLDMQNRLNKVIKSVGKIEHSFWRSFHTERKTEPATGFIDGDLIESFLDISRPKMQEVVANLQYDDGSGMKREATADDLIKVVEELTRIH
Sequence of GSPT1 (P15170 whole entry): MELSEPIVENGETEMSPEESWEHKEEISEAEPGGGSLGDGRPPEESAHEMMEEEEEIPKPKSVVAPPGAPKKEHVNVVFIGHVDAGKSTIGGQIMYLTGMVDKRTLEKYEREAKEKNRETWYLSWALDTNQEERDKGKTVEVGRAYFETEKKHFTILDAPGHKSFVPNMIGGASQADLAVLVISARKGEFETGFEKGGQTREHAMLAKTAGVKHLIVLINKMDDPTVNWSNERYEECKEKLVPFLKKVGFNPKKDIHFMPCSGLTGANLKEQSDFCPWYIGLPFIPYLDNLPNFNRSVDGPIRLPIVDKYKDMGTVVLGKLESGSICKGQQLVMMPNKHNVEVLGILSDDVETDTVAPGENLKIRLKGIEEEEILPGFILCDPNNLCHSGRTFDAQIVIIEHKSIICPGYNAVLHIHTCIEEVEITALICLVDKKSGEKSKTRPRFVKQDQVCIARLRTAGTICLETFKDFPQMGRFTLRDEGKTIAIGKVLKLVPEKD
Sequence of ternary complex between BTK and CRBN (Q06187 whole entry): as the sequence (Q06187 whole entry) above
Sequence of ternary complex between BTK and CRBN (Q96SW2 whole entry): as the sequence (Q96SW2 whole entry) above

Regarding `C[C@H]1CN(C(=O)COc2cccc3c2C(=O)N(C2CCC(=O)NC2=O)C3=O)CCN1c1ccc(Nc2cc(-c3ccnc(N4CCn5c(cc6c5CC(C)(C)C6)C4=O)c3CO)cn(C)c2=O)nc1` (stereo partly drawn) [PTD14, 4-(2-((S)-4-(6-((2’-(7,7-dimethyl-1-oxo-1,3,4,6,7,8-hexahydro-2H-cyclopenta[4,5]pyrrolo[1,2-a]pyrazin-2-yl)-3’-(hydroxymethyl)-1-methyl-6-oxo-1,6-dihydro-[3,4’-bipyridin]-5-yl)amino)pyridin-3-yl)-3-methylpiperazin-1-yl)-2-oxoethoxy)-2-(2,6-dioxopiperidin-3-yl)isoindoline-1,3-dione], in assay [1], the “Effect on abundance of other kinases” value was “did not affect the abundance of other kinases”. Besides, the “Effect on levels of GSPT1” value in [2] is “did not affect the levels”. In addition, the “Degradation of neo-substrates IKZF1 and IKZF3” value in assay [3] is recorded as “no degradation”.
Consider `C[C@H]1CN(C2COC2)CCN1c1ccc(Nc2cc(-c3ccnc(N4CCn5c(cc6c5CC(C)(C)C6)C4=O)c3CO)cn(C)c2=O)nc1` [GDC-0853, fenebrutinib, reference compound], for which the Induction of apoptosis entry is listed as “a dose-dependent effect was observed” in assay [4] and “did not cause apoptosis” in assay [6]. The “Effect on BCR signaling pathway (p-PLCγ2, p-BTK, p-AKT, p-NF-κB, PLCγ2, AKT, NF-κB)” value in assay [5] is given as “less prominent”. In addition, the “BTK degradation by parent molecules” value in assay [7] (Ramos cells) is given as “no BTK degradation was observed”.
Take “4-((2-(2-(2-(2-azidoethoxy)ethoxy)ethoxy)ethyl)amino)-2-(2,6-dioxopiperidin-3-yl)isoindoline-1,3-dione [P13I, reference compound]”: the figures for the IC50 in assay [8] and in assay [9] were 10.4 ± 2.4 nM and 15 ± 2.8 nM, respectively. In assay [1], the “Effect on abundance of other kinases” value is “significant degradation of some off-targets, specifically, CSK and FRK”. Moreover, in [2], the “Effect on levels of GSPT1” value is “did not affect the levels”. The “Degradation of neo-substrates IKZF1 and IKZF3” value in [3] is given as “degrade”.
In the case of `C[C@H]1CN(C(=O)c2cccc3c2C(=O)N(C2CCC(=O)NC2=O)C3=O)CCN1c1ccc(Nc2cc(-c3ccnc(N4CCn5c(cc6c5CC(C)(C)C6)C4=O)c3CO)cn(C)c2=O)nc1` (stereo partly drawn) [PTD13, 4-((S)-4-(6-((2’-(7,7-dimethyl-1-oxo-1,3,4,6,7,8-hexahydro-2H-cyclopenta[4,5]pyrrolo[1,2-a]pyrazin-2-yl)-3’-(hydroxymethyl)-1-methyl-6-oxo-1,6-dihydro-[3,4’-bipyridin]-5-yl)amino)pyridin-3-yl)-3-methylpiperazine-1-carbonyl)-2-(2,6-dioxopiperidin-3-yl)isoindoline-1,3-dione], the “Hill slope, CRBN target engagement” value in assay [10] amounted to 1.0. In addition, the “Hill slope, BTK target engagement” value in assay [11] is on record as 1.4. In addition, the “Ternary complex formation (in words)” value in assay [12] was “no ternary complex was observed”.
On to `Nc1cccc2c1C(=O)N(C1CCC(=O)NC1=O)C2=O` (stereo not shown) [Pomalidomide, pomalidomide, reference compound], for which the values for the Induction of apoptosis result in assay [4] and in [6] were “little effect” and “induced apoptosis in Mino cells in a dose-dependent manner”, respectively. Also, the “BTK degradation by parent molecules” value in assay [7] (Ramos cells) was “no BTK degradation was observed”.
Consider `C[C@H]1CN(C(=O)CNc2cccc3c2C(=O)N(C2CCC(=O)NC2=O)C3=O)CCN1c1ccc(Nc2cc(-c3ccnc(N4CCn5c(cc6c5CC(C)(C)C6)C4=O)c3CO)cn(C)c2=O)nc1` (stereo partly drawn) [PTD10, 4-((2-((S)-4-(6-((2’-(7,7-dimethyl-1-oxo-1,3,4,6,7,8-hexahydro-2H-cyclopenta[4,5]pyrrolo[1,2-a]pyrazin-2-yl)-3’-(hydroxymethyl)-1-methyl-6-oxo-1,6-dihydro-[3,4’-bipyridin]-5-yl)amino)pyridin-3-yl)-3-methylpiperazin-1-yl)-2-oxoethyl)amino)-2-(2,6-dioxopiperidin-3-yl)isoindoline-1,3-dione], for which, in assay [10], the “Hill slope, CRBN target engagement” value is given as 1.0. Also, the “Hill slope, BTK target engagement” value in assay [11] came to 1.9. Further, the “Effect on abundance of other kinases” value in [1] was “did not affect the abundance of other kinases”. For the same molecule, the “Concentration at which robust apoptosis was detected” value in assay [4] (TMD8 and Mino cell lines) was found to be 333 nM. For the same molecule, the Induction of apoptosis result in assay [4] was “induce apoptosis in a dose-dependent manner”. Moreover, the “Effect on BCR signaling pathway (p-PLCγ2, p-BTK, p-AKT, p-NF-κB, PLCγ2, AKT, NF-κB)” value in assay [5] is “Robust downregulation was observed”. Further, the Induction of apoptosis result in assay [6] is on record as “induce apoptosis in a dose-dependent manner”. In addition, the “Effect on levels of GSPT1” value in [2] is recorded as “did not affect the levels”. In addition, the “BTK degradation in B-cell malignant cell lines” value in assay [13] is “potent degradation effects”. In assay [7] (BTK degradation, Figure 3), the “Concentration at which Hook effect was observed” value is reported as more than 333 nM. Also, the “BTK degradation on co-treatment with competitor” value in assay [7] (Ramos cells, 111 nM PTD10 with 1 μM GDC-0853 or 20 μM iberdomide (CC-220), 17 h) was “BTK degradation was completely blocked”. Besides, the “BTK degradation after pre-treatment with bortezomib or MLN-4924” value in assay [7] (Ramos cells, pre-treated 2 h, then 111 nM PTD10 for 4 h) is reported as “inhibition of BTK degradation”. Also, in assay [14], the “Levels of Bcl-2 and Mcl-1” value was “significant down-regulation”; the “Levels of cleaved-PARP and cleaved caspase-3” value was “increase”. In [3], the “Degradation of neo-substrates IKZF1 and IKZF3” value is “degrade”. The “Ternary complex formation (in words)” value in assay [12] was “prominent ternary complex formation”. In addition, in [12] (maximum ternary complex formation setting the BRET ratio for PTD10 at 100%), the “Ternary Complex Formation (maximum)” value was 100%.
As to `C[C@H]1CN(C(=O)CNc2cccc3c2CN(C2CCC(=O)NC2=O)C3=O)CCN1c1ccc(Nc2cc(-c3ccnc(N4CCn5c(cc6c5CC(C)(C)C6)C4=O)c3CO)cn(C)c2=O)nc1` (stereo partly drawn) [PTD12, 3-(4-((2-((S)-4-(6-((2’-(7,7-dimethyl-1-oxo-1,3,4,6,7,8-hexahydro-2H-cyclopenta[4,5]pyrrolo[1,2-a]pyrazin-2-yl)-3’-(hydroxymethyl)-1-methyl-6-oxo-1,6-dihydro-[3,4’-bipyridin]-5-yl)amino)pyridin-3-yl)-3-methylpiperazin-1-yl)-2-oxoethyl)amino)-1-oxoisoindolin-2-yl)piperidine-2,6-dione], in [7] (DC50 ratio), the “Decrease in degradation activity compared to PTD10” value was ~ 8 fold.
In the case of `C[C@H]1CN(C(=O)CCCCCCCCCCCNc2cccc3c2C(=O)N(C2CCC(=O)NC2=O)C3=O)CCN1c1ccc(Nc2cc(-c3ccnc(N4CCn5c(cc6c5CC(C)(C)C6)C4=O)c3CO)cn(C)c2=O)nc1` (stereo partly drawn) [PTD15, 4-((12-((S)-4-(6-((2’-(7,7-dimethyl-1-oxo-1,3,4,6,7,8-hexahydro-2H-cyclopenta[4,5]pyrrolo[1,2-a]pyrazin-2-yl)-3’-(hydroxymethyl)-1-methyl-6-oxo-1,6-dihydro-[3,4’-bipyridin]-5-yl)amino)pyridin-3-yl)-3-methylpiperazin-1-yl)-12-oxododecyl)amino)-2-(2,6-dioxopiperidin-3-yl)isoindoline-1,3-dione], in [10], the “Hill slope, CRBN target engagement” value is 0.5. The “Fold less potent than GDC-0853 at engaging BTK” value in assay [11] (NanoBRET) amounted to 250 fold. In [11], the “Hill slope, BTK target engagement” value is reported as 1.3.
For the molecule `Cc1ncsc1-c1ccc(CNC(=O)[C@@H]2C[C@@H](O)CN2C(=O)[C@@H](NC(=O)COCCOCCCCCCC(=O)N2CCN(c3ccc(Nc4cc(-c5ccnc(N6CCn7c(cc8c7CC(C)(C)C8)C6=O)c5CO)cn(C)c4=O)nc3)[C@@H](C)C2)C(C)(C)C)cc1` [PTD3, (2S,4R)-1-((S)-2-(2-(2-((7-((S)-4-(6-((2’-(7,7-dimethyl-1-oxo-1,3,4,6,7,8-hexahydro-2H-cyclopenta[4,5]pyrrolo[1,2-a]pyrazin-2-yl)-3’-(hydroxymethyl)-1-methyl-6-oxo-1,6-dihydro-[3,4’-bipyridin]-5-yl)amino)pyridin-3-yl)-3-methylpiperazin-1-yl)-7-oxoheptyl)oxy)ethoxy)acetamido)-3,3-dimethylbutanoyl)-4-hydroxy-N-(4-(4-methylthiazol-5-yl)benzyl)pyrrolidine-2-carboxamide], in assay [7] (Ramos and JeKo-1 cell lines, 17 h, concentrations lower than 3000 nM, Figure S1), the “BTK degradation (VHL-based PROTAC)” value is listed as “no degradation was observed”.
